System: healthy Chinese volunteers
Assay: Single-dose trial, safety and tolerability (adverse events)
Type: in vivo, human
Protocol: Single-dose pharmacokinetics: The single-dose trial was performed first. Seven doses of CK were given orally under fasting condition: 25, 50, 100, 200, 400, 600, and 800 mg. Eligible subjects (n = 76, male:female = 1:1) were randomized into each dose level (n = 8, 8, 10, 10, 10, 8, 8, respectively) or placebo groups (n = 2 for each dose group) with equal number of men and women in each group. Subjects in each group were admitted to the clinical facility the day before drug administration and received the corresponding dose of the test drug or placebo with 250 ml warm water on the morning of the dosing day. Drinking before and after medication was prohibited for 2 h, but the amount and time of drinking were not strictly controlled at other times. All subjects had standard lunch and dinner (unified light diet) after medication 4 and 10 h.
Safety was evaluated by continuous observation of adverse events (AEs), monitoring of vital signs, ECG, hematology, biochemistry, and urinalysis at baseline, during the trials at the set time points following drug administration, and at follow-up visits after study completion. AEs were classified by their intensity into mild, moderate and severe. Additionally, the AEs were also classified according their relationship to the test drug as positive, probable, possible, remote, or unrelated. The severity of the AEs, as well as their relationship to test drug, was assessed by a qualified physician in the unit. Clinically relevant changes in vital signs, ECG and laboratory parameters were defined as marked abnormalities. ECG were recorded in the semisupine position after a rest of at least 5 min. It is worth noting that all the information, including symptoms and signs after dosing or the medications that the subjects were concomitantly taking must be recorded on the case-report form by investigators. All available data from subjects who received the test drug and placebo were included in the summaries of the safety data and were descriptively analyzed. In addition, the differences between laboratory parameters at baseline and after drug treatment were analyzed to determine whether there were clinical significances.
All the safety data, including vital signs, laboratory indexes and ECG, were descriptively analyzed, and the statistical analyses were conducted to evaluate the effects of the test drug by comparing the differences between before and after drug treatment, between the test drug group and the placebo group and among the different dose groups.

[1] = single-dose trial, 25 mg (n = 8)
[2] = single-dose trial, 50 mg (n = 8)
[3] = single-dose trial, 100 mg (n = 10)
[4] = single-dose trial, 200 mg (n = 10)
[5] = single-dose trial, 400 mg (n = 10)
[6] = single-dose trial, 600 mg (n = 8)
[7] = single-dose trial, 800 mg (n = 8)
[8] = single-dose trial, of the 44 cases of AEs

## CC(C)=CCC[C@](C)(OC1O[C@H](CO)[C@@H](O)[C@H](O)[C@H]1O)[C@H]1CC[C@]2(C)[C@@H]1[C@H](O)C[C@@H]1[C@@]3(C)CC[C@H](O)C(C)(C)[C@@H]3CC[C@]12C (stereo partly drawn) [CK, 20-O-beta-D-glucopyranosyl-20(S)-protopanaxadiol]
Both trials
  ECG after the drug treatments: none of the subjects had clinically significant abnormalities
  intensity of all observed AEs: mild or moderate
  serious AEs: no serious AEs reported
Single dose 25 to 800 mg and multiple doses of 100–400 mg, both trials
  safety and tolerability: safe and well-tolerated
single-dose trial
  AEs after taking the test drug: 33 AEs
  subjects who suffered AEs after taking the test drug: 22 subjects
[1]
  Alkaline phosphatase increased (study drug-related AE): 0 number of subjects (%)
  Any AEs (study drug-related): 0 number of subjects (%)
  Bellyache (study drug-related AE): 0 number of subjects (%)
  Blood white cells increased (study drug-related AE): 0 number of subjects (%)
  Diarrhea (study drug-related AE): 0 number of subjects (%)
  Direct bilirubin increased (study drug-related AE): 0 number of subjects (%)
  Dizziness (study drug-related AE): 0 number of subjects (%)
  Headache (study drug-related AE): 0 number of subjects (%)
  Loss of appetite (study drug-related AE): 0 number of subjects (%)
  Nausea (study drug-related AE): 0 number of subjects (%)
  Rash (study drug-related AE): 0 number of subjects (%)
  Subcutaneous bleeding (double forearm) (study drug-related AE): 0 number of subjects (%)
  Total bilirubin increased (study drug-related AE): 0 number of subjects (%)
[2]
  Alkaline phosphatase increased (study drug-related AE): 0 number of subjects (%)
  Any AEs (study drug-related): 2 (2.6) number of subjects (%)
  Bellyache (study drug-related AE): 0 number of subjects (%)
  Blood white cells increased (study drug-related AE): 0 number of subjects (%)
  Diarrhea (study drug-related AE): 0 number of subjects (%)
  Direct bilirubin increased (study drug-related AE): 2 (2.6) number of subjects (%)
  Dizziness (study drug-related AE): 0 number of subjects (%)
  Headache (study drug-related AE): 0 number of subjects (%)
  Loss of appetite (study drug-related AE): 0 number of subjects (%)
  Nausea (study drug-related AE): 0 number of subjects (%)
  Rash (study drug-related AE): 0 number of subjects (%)
  Subcutaneous bleeding (double forearm) (study drug-related AE): 0 number of subjects (%)
  Total bilirubin increased (study drug-related AE): 0 number of subjects (%)
[3]
  Alkaline phosphatase increased (study drug-related AE): 0 number of subjects (%)
  Any AEs (study drug-related): 2 (2.6) number of subjects (%)
  Bellyache (study drug-related AE): 0 number of subjects (%)
  Blood white cells increased (study drug-related AE): 0 number of subjects (%)
  Diarrhea (study drug-related AE): 0 number of subjects (%)
  Direct bilirubin increased (study drug-related AE): 0 number of subjects (%)
  Dizziness (study drug-related AE): 1 (1.3) number of subjects (%)
  Headache (study drug-related AE): 1 (1.3) number of subjects (%)
  Loss of appetite (study drug-related AE): 0 number of subjects (%)
  Nausea (study drug-related AE): 0 number of subjects (%)
  Rash (study drug-related AE): 0 number of subjects (%)
  Subcutaneous bleeding (double forearm) (study drug-related AE): 0 number of subjects (%)
  Total bilirubin increased (study drug-related AE): 0 number of subjects (%)
[4]
  Alkaline phosphatase increased (study drug-related AE): 1 (1.3) number of subjects (%)
  Any AEs (study drug-related): 5 (6.6) number of subjects (%)
  Bellyache (study drug-related AE): 0 number of subjects (%)
  Blood white cells increased (study drug-related AE): 0 number of subjects (%)
  Diarrhea (study drug-related AE): 2 (2.6) number of subjects (%)
  Direct bilirubin increased (study drug-related AE): 2 (2.6) number of subjects (%)
  Dizziness (study drug-related AE): 0 number of subjects (%)
  Headache (study drug-related AE): 0 number of subjects (%)
  Loss of appetite (study drug-related AE): 0 number of subjects (%)
  Nausea (study drug-related AE): 0 number of subjects (%)
  Rash (study drug-related AE): 0 number of subjects (%)
  Subcutaneous bleeding (double forearm) (study drug-related AE): 0 number of subjects (%)
  Total bilirubin increased (study drug-related AE): 1 (1.3) number of subjects (%)
[5]
  Alkaline phosphatase increased (study drug-related AE): 0 number of subjects (%)
  Any AEs (study drug-related): 5 (6.6) number of subjects (%)
  Bellyache (study drug-related AE): 1 (1.3) number of subjects (%)
  Blood white cells increased (study drug-related AE): 1 (1.3) number of subjects (%)
  Diarrhea (study drug-related AE): 2 (2.6) number of subjects (%)
  Direct bilirubin increased (study drug-related AE): 1 (1.3) number of subjects (%)
  Dizziness (study drug-related AE): 0 number of subjects (%)
  Headache (study drug-related AE): 1 (1.3) number of subjects (%)
  Loss of appetite (study drug-related AE): 0 number of subjects (%)
  Nausea (study drug-related AE): 0 number of subjects (%)
  Rash (study drug-related AE): 0 number of subjects (%)
  Subcutaneous bleeding (double forearm) (study drug-related AE): 0 number of subjects (%)
  Total bilirubin increased (study drug-related AE): 0 number of subjects (%)
[6]
  Alkaline phosphatase increased (study drug-related AE): 0 number of subjects (%)
  Any AEs (study drug-related): 1 (1.3) number of subjects (%)
  Bellyache (study drug-related AE): 0 number of subjects (%)
  Blood white cells increased (study drug-related AE): 0 number of subjects (%)
  Diarrhea (study drug-related AE): 0 number of subjects (%)
  Direct bilirubin increased (study drug-related AE): 1 (1.3) number of subjects (%)
  Dizziness (study drug-related AE): 0 number of subjects (%)
  Headache (study drug-related AE): 0 number of subjects (%)
  Loss of appetite (study drug-related AE): 0 number of subjects (%)
  Nausea (study drug-related AE): 0 number of subjects (%)
  Rash (study drug-related AE): 0 number of subjects (%)
  Subcutaneous bleeding (double forearm) (study drug-related AE): 0 number of subjects (%)
  Total bilirubin increased (study drug-related AE): 0 number of subjects (%)
[7]
  Alkaline phosphatase increased (study drug-related AE): 0 number of subjects (%)
  Any AEs (study drug-related): 3 (3.9) number of subjects (%)
  Bellyache (study drug-related AE): 1 (1.3) number of subjects (%)
  Blood white cells increased (study drug-related AE): 0 number of subjects (%)
  Diarrhea (study drug-related AE): 1 (1.3) number of subjects (%)
  Direct bilirubin increased (study drug-related AE): 0 number of subjects (%)
  Dizziness (study drug-related AE): 0 number of subjects (%)
  Headache (study drug-related AE): 0 number of subjects (%)
  Loss of appetite (study drug-related AE): 0 number of subjects (%)
  Nausea (study drug-related AE): 0 number of subjects (%)
  Rash (study drug-related AE): 1 (1.3) number of subjects (%)
  Subcutaneous bleeding (double forearm) (study drug-related AE): 0 number of subjects (%)
  Total bilirubin increased (study drug-related AE): 0 number of subjects (%)
[8]
  AEs possibly related to CK: 7 cases
  AEs probably related to the test drug: 13 cases

Source: paper PMC5769417, “Single- and Multiple-Dose Trials to Determine the Pharmacokinetics, Safety, Tolerability, and Sex Effect of Oral Ginsenoside Compound K in Healthy Chinese Volunteers” (Frontiers in Pharmacology, 2018)
